The results in this text go back to PubChem BioAssay (NCI).

What all share (assay): inhibition of tumour cell growth, NCI panel, 48 h
The test system of experiment [1] is UACC-257 melanoma.
In experiment [2] the test system is NCI-H226 lung.
For experiment [3], the system named is SF-268 CNS.
The subject of experiment [4] is SK-MEL-2 melanoma.
For experiment [5], the system named is RXF 393 renal.
The test system of experiment [6] is RPMI-8226 leukemia.
Experiment [7] deals with SNB-75 CNS.
For experiment [8], the system named is SN12C renal.
Experiment [9] relates to HCT-116 colon.
The subject of experiment [10] is SK-OV-3 ovarian.
Experiment [11] has as its system SK-MEL-5 melanoma.
Experiment [12] concerns 786-0 renal.
Experiment [13] has as its system EKVX NSCLC.
Experiment [14] has as its system MDA-MB-231 breast.
Experiment [15] relates to UO-31 renal.
Experiment [16] deals with UACC-62 melanoma.
Experiment [17] has as its system LOX IMVI melanoma.

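The compound was tested at five concentrations on cells cultured in 96-well plates, with a 48-hour exposure period. TGI is the concentration that stops growth completely.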

As for `COc1ccc2c(c1)C(N)CC2=O` (configuration not stated), the TGI in [1] is above 100 µM; in experiment [2] it was above 100 µM; in [3], above 100 µM; in experiment [4] it was 74.1 µM; in experiment [5], 36.3 µM; in experiment [6], above 100 µM. For the same compound, the TGI in experiment [7], in experiment [8], in [9], in experiment [10], in experiment [11] and in [12] was above 100 µM in each case. Further, the TGI in experiment [13], in experiment [14], in [15] and in experiment [16] was above 100 µM throughout.
On to `Cc1[nH]c2ncn3nc(C(Cl)(Cl)Cl)nc3c2c1Cc1ccccc1`, for which the TGI in [1], in experiment [2], in [3], in experiment [4], in experiment [5] and in experiment [6] was above 100 µM each time. For the same compound, the TGI in experiment [7], in [8], in experiment [9], in experiment [10], in experiment [11] and in [12] was above 100 µM throughout. For the same compound, the TGI in experiment [13] is above 100 µM; in experiment [14], above 100 µM; in experiment [15], 23.3 µM; in experiment [16], above 100 µM.
As to `CSC(SC)=C1CC(=O)Nc2ccccc2C1=O`, the TGI was above 100 µM in experiment [1]; 32.5 µM in experiment [17]; above 100 µM in experiment [2]; above 100 µM in experiment [3]; above 100 µM in experiment [4]; 52.8 µM in experiment [5]. Further, the TGI in [8], in [9], in experiment [10], in experiment [11], in experiment [12] and in experiment [13] was above 100 µM throughout. Moreover, the TGI in experiment [14], in experiment [15] and in experiment [16] was above 100 µM each time.
For the compound `S=c1[nH]nc(COc2ccc3c(c2)CCCC3)n1/N=C/c1ccc(Cl)cc1`, the TGI amounted to 48.1 µM in [1]; 37 µM in experiment [17]; 43 µM in [3]; 36.2 µM in [4]; 28.8 µM in experiment [5]; 36.1 µM in experiment [6]. The TGI in experiment [8] is 37.9 µM; in experiment [9], 28.6 µM; in [10] it was 32.4 µM; in experiment [11], 29.3 µM; in experiment [13] it was 34.6 µM; in [14], 44.9 µM. Moreover, the results for the TGI in experiment [15] and in experiment [16] were 31.4 µM and 33.7 µM, respectively.
Regarding `NC(=O)NC(=O)c1cnccn1`, the TGI in [1], in [17], in experiment [2], in experiment [3], in [4] and in [5] was above 100 µM throughout. Also, the TGI in [6], in [8], in [9], in experiment [10], in [12] and in experiment [13] was above 100 µM each time. Besides, the TGI in experiment [14], in experiment [15] and in experiment [16] was above 100 µM throughout.
Turning to `CC(=O)/C(C=Nc1c(C)n(C)n(-c2ccccc2)c1=O)=C(/C)O`, the TGI in experiment [1], in [17], in [2], in experiment [4], in experiment [5] and in experiment [6] was above 100 µM throughout. Also, the TGI in experiment [7], in experiment [8], in experiment [9], in experiment [10], in [11] and in experiment [12] was above 100 µM throughout. In addition, the TGI in experiment [13], in experiment [14], in experiment [15] and in experiment [16] was above 100 µM each time.
As to `Cn1c(=O)oc2cc(C(=O)CSC(=S)N3CCCCCC3)ccc21`, the TGI in [1], in experiment [2], in experiment [3], in experiment [4], in [5] and in [6] was above 100 µM in each case. In addition, the TGI in experiment [7], in experiment [8], in experiment [9], in experiment [10], in experiment [11] and in experiment [12] was above 100 µM in each case. For the same compound, the TGI in [13], in experiment [14], in [15] and in [16] was above 100 µM in each case.
As to `CC(C(=O)N1C(=O)N(C(=O)C(C)C(O)c2ccccc2)C(c2ccccc2)C1c1ccccc1)C(O)c1ccccc1` (configuration not stated), the TGI was 24.2 µM in experiment [17]; 34.3 µM in [2]; above 100 µM in experiment [3]; 50.2 µM in [4]; 28.1 µM in experiment [5]; 13.6 µM in experiment [6]. In addition, the TGI is 54.8 µM in experiment [7]; 37.3 µM in experiment [8]; 26.7 µM in [9]; above 100 µM in experiment [12]; 77.9 µM in experiment [14]; 41.1 µM in [15]. For the same compound, the TGI in experiment [16] amounted to 40.5 µM.
With `CN1CCCN2CCN(C)CCN(CC1)CC2`, the TGI in [1], in experiment [17], in experiment [3], in [4], in experiment [5] and in experiment [6] was above 100 µM in each case. The TGI in experiment [7], in [8], in experiment [9], in experiment [10], in experiment [11] and in experiment [12] was above 100 µM each time. In addition, the TGI in experiment [13], in experiment [14], in experiment [15] and in experiment [16] was above 100 µM in each case.
